Measured values: patent US20040171073A1, “Compounds for modulation of cholesterol transport” (Massachusetts Institute of Technology, priority 2002, published 2004)

Biological target: T1, murine SR-BI (Mus musculus, UniProt Q61009)
T1 construct: expressed in transfected cells; host or cells: ldlA-7 (LDL receptor deficient Chinese hamster ovary cells)
T1 sequence (Q61009 1-509): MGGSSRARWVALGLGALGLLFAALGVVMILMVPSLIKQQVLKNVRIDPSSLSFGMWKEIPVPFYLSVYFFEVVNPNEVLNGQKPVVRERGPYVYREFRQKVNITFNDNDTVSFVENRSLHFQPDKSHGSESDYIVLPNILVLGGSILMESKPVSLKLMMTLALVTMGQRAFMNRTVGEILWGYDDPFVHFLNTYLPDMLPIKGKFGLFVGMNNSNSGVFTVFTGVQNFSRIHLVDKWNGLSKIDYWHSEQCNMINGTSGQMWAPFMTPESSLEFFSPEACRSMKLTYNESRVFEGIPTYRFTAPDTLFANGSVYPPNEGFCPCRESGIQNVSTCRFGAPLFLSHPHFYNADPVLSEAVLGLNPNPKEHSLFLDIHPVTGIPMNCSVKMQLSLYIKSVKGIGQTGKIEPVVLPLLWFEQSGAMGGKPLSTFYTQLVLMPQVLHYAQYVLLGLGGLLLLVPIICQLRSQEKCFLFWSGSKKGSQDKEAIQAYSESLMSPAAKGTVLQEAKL
Assay: Uptake of DiI from DiI-HDL by ldlA[mSR-BI] cells (high throughput screen and concentration dependence)
Assay type: cell-based

[1] = DiI uptake from DiI-HDL, compounds at nominal 10 micromolar, ldlA[mSR-BI] cells

Row | Structure (SMILES) | ENDOHDL Test 1 | ENDOHDL Test 2 | ENDOHDL Test 1 [1] | ENDOHDL Test 2 [1]
1 | CC1=C(C(=O)OCc2ccccc2)C(c2ccc(N(C)C)cc2)NC(=O)N1 (stereo not shown) [MIT 9952-163] | 0.6 | 0.69 | – | –
2 | CC(=O)Oc1ccc2ccccc2c1C=O [MIT 9952-13] | 0.55 | 0.67 | – | –
3 | O=C(/C=C/c1ccccc1)NC(NC(=S)Nc1cccc([N+](=O)[O-])c1)C(Cl)(Cl)Cl (stereo not shown) [MIT 9952-7] | 0.5 | 0.51 | – | –
4 | Cc1cccc(C(=O)Nc2cccc(Cl)c2)c1 [MIT 9952-279] | – | – | 0.64 | 0.63
5 | Cc1ccc2[nH]c3c(c2c1)CCCC3NCC12CC3CC(CC(C3)C1)C2 (stereo not shown) [MIT 9952-265] | 0.26 | 0.89 | – | –
6 | COc1ccc([N+](=O)[O-])cc1NC(=O)c1ccccc1 [MIT 9952-338] | – | – | 0.61 | 0.6
7 | Nc1nc(N)nc(-c2cccc(-c3nc(N)nc(N)n3)c2)n1 [MIT 9952-173] | 1.96 | 1.61 | – | –
8 | O=C1Nc2ccc([N+](=O)[O-])cc2/C1=N/NC(=O)C1C2CCCCC21 (stereo not shown) [MIT 9952-184] | 0.6 | 0.58 | – | –
9 | CN(CC#CC(O)(c1ccccc1)c1ccccc1)C1CCCCC1 [MIT 9952-72] | 1.07 | 1.12 | – | –
10 | O=C(/C=C/c1cccc([N+](=O)[O-])c1)Nc1cccc(Cl)c1 [MIT 9952-291] | – | – | 0.55 | 0.51
11 | Brc1ccc(-c2cc(-c3ccccc3)nc(N3CCOCC3)n2)cc1 [MIT 9952-261] | 0.62 | 0.66 | – | –
12 | O=C(N/N=C\c1ccccc1O)c1ccc(O)cc1 [MIT 9952-170] | 0.54 | 0.54 | – | –
13 | C/C(=N\Nc1ccc([N+](=O)[O-])cc1)c1ccc([N+](=O)[O-])cc1 [MIT 9952-245] | 0.54 | 0.64 | – | –
14 | Cc1cc(C(=O)N/C=C\c2c(Cl)ccc3ccccc23)[nH]n1 [MIT 9952-38] | 0.34 | 0.52 | – | –
15 | O=C(/C=C/c1ccccc1)Nc1cccc(Cl)c1Cl [MIT 9952-263] | 0.66 | 0.65 | – | –
16 | O=C(Nc1ccc(-c2nc3cc(NC(=O)c4ccccc4[N+](=O)[O-])ccc3o2)cc1)c1ccccc1[N+](=O)[O-] [MIT 9952-339] | – | – | 0.58 | 0.54
17 | Cc1nc(O)c(C(c2cc([N+](=O)[O-])ccc2O)c2c(O)nc(C)nc2O)c(O)n1 [MIT 9952-82] | 1.27 | 1.4 | – | –
18 | O=C(O/N=C/c1ccc([N+](=O)[O-])o1)c1ccccc1 [MIT 9952-195] | 1.22 | 1.35 | – | –
19 | COc1ccc(C(=O)Nc2ccc(I)cc2)cc1OC [MIT 9952-253] | 0.59 | 0.65 | – | –
20 | CCOC(=O)c1c(NC(=O)c2ccccc2C)sc2c1CCCC2 [MIT 9952-223] | 0.64 | 0.57 | – | –
21 | CCN(CC)CC(=O)Nc1ccc2c(c1)Nc1ccccc1CC2.Cl [MIT 9952-158] | 0.42 | 0.39 | – | –
22 | Cc1[nH]c2ccccc2c1-c1c2ccccc2nc2ccccc12 [MIT 9952-183] | 0.59 | 0.65 | – | –
23 | COc1cc2ccccc2cc1C(=O)Nc1cccc(C)c1 [MIT 9952-237] | 0.53 | 0.39 | – | –
